Data from EP2228429A1, “Shading dye and catalyst combination” (Unilever PLC, priority 2009, dated 2010).

Experiments:
[1] = Example 3: bleaching of BC1 stain monitor cloth with catalyst AC and hydrogen peroxide (delta E); details: pH=10, 0.5g/L LAS, 30°C, 30 minutes
Protocol: BC1 (fixed tea stain) bleachable stain test monitor cloth was washed in a bicarbonate buffer (pH=10) with 0.5g/L LAS surfactant, a Liquor to Cloth ratio of 60:1, a temperature of 30°C and a wash time of 30 minutes. The experiment was repeated with various levels of catalyst AC and hydrogen peroxide. The final colour of the cloth was measured and expressed as the delta E relative to a clean piece of cotton. Lower values indicate effective bleaching of the stain.

[2] = Example 7: shading of white cotton washed with Persil Colour containing direct violet 51 and bleach system; details: 100 ppb direct violet 51, 5g/L Persil Colour, 40°C, 30 minutes
Protocol: (§1) White non-mercerised cotton sheeting was washed at 40°C in 5g/L Persil Colour for 30 minutes with a liquor to cloth ratio of 60:1. Persil Colour is a zeolite/anionic/non-ionic surfactant based washing powder. Direct Violet 51 was added to the powder such that 100 ppb of direct violet 51 was in the wash liquor.
(§2) The experiment was repeated with the addition of 10 micromolar catalyst with 10 millimolar peroxide and 2 micromolar catalyst with 2 millimolar peroxide. Following rinsing and drying the colour of the cloth was measured relative to a white cotton control cloth washed without addition of direct violet 51.

[3] = Example 7: bleaching of BC1 monitor washed with Persil Colour and bleach system; details: no direct violet 51, liquor to cloth ratio 120:1
Protocol: as §1, §2
The experiment was then repeated using a BC1 model tea bleach monitor and a liquor to cloth ratio of 120:1. For clarity no direct violet 51 was added to the Persil Colour in this case.

[4] = Example 2: shading of cotton washed with Persil Colour powder containing acid blue 25, catalyst and hydrogen peroxide (reflectometer, delta E); design: key: reflectometer delta E vs cloth washed without added dye or bleach; details: 0.3% acid blue 25 in powder, 2.5g/L, 30°C, 30 minutes
Protocol: Various amounts of catalyst AC and DC were separately added to Persil Colour (TM) washing powder, such that when the powder was dosed at 2.5g/L a 1, 2, 4 and 8 micromolar solution of the catalysts were obtained. Persil Colour is a commercial washing powder containing 5-15% anionic surfactant and non-ionic surfactant, 15-30% zeolite and less than 5% soap, polycarboxylate and phosphate. It also contains enzymes. 0.3% of the dye acid blue 25 was also added to the powder. The so-created powders were used to wash bleach non-mercerised woven cotton at 30°C, for 30 minutes with a liquor to cloth ration of 30:1 and 2.5g/L powder. Various amounts of hydrogen peroxide was added to activate the catalyst. Following the wash the clothes were rinsed dried and the shading on the cloth measured using a reflectometer and expressed as the delta E values relative to cloth washed with Persil Colour without added dye or bleach system.

[5] = Example 1: bleaching of shading dyes in pH=10 buffer by catalyst AC and hydrogen peroxide, from optical density; details: after 30 minutes at 20 °C; for % bleaching (a): (a) 1 micromolar AC, 1 millimolar hydrogen peroxide; for % bleaching (b): (b) 4 micromolar AC, 4 millimolar hydrogen peroxide
Protocol: A selection of shading dyes, which deposit onto cotton from wash solutions and have varying structures, was made. Solution of these dyes were made in pH=10 buffer such that the optical density at 1 cm was approximately 1. To this solution the catalyst AC was added alongside hydrogen peroxide such that the concentrations were: • (a) 1 micromolar AC, 1 millimolar hydrogen peroxide • (b) 4 micromolar AC, 4 millimolar hydrogen peroxide The optical density of the dye was measured at the beginning of the experiment and after 30 minutes at 20 °C. From these measurements the % of dye bleaching was calculated using the equation % bleaching = 100 x (ODinitial-OD30 minutes)/ODinitial [formula]

[6] = Example 5: dye bleaching in solution at pH=10 by catalyst and peroxide
Source text: Bleaching was much slower with […] 2 millimolar peroxide.

[7] = Example 6: take up of hydrophobic shading dyes by polyester in a wash with catalyst and hydrogen peroxide (delta E); details: 0.2ppm dye, 1.8g/L powder, 30 minutes at 20°C
Protocol: White knitted polyester was washed for 30 minutes at 20°C in 1.8g/L of Brihlante™ washng powder (ex Brasil) with a liquor to cloth ration of 100:1. This is a phosphate/anionic surfactant based powder. Various levels of catalyst BC and hydrogen peroxide was added to the wash liquor alongside 0.2ppm of the hydrophobic shading dyes disperse blue 79:1 (azo dye) and solvent violet 13 (anthraquinone dye). The take up of the hydrophobic shading by the polyester was measured as the delta E relative to white cotton and the results shown below.

[8] = Example 4: bleaching of black tea stain on cotton sheeting; details: pH=10 solution, 2 micromolar DC and 2 millimolar peroxide; versus control with 2 micromolar Mn(II) and 2 millimolar peroxide
Protocol: Black tea beverage was created by placing 1 PG Tips pyramid tea bag in 400ml of boiled ultrapure water for 5 minutes. The tea bag was then removed and the beverage cooled to room temperature. Non-mercerised non-fluorescent white cotton sheeting was dipped in the cold tea and removed. The cloth was left to dry for 1 day in the dark, then used for experiments.

[9] = 2 micromolar catalyst, 2 millimolar H2O2, colour relative to white cotton control washed without dye
[10] = 10 micromolar catalyst, 10 millimolar H2O2
[11] = 2 micromolar catalyst, 2 millimolar H2O2
[12] = 1 micromolar catalyst, 1 millimolar H2O2, relative to cloth washed without dye or bleach system
[13] = 4 micromolar catalyst, 4 millimolar H2O2
[14] = 8 micromolar catalyst, 8 millimolar H2O2
[15] = pH=10, 2 micromolar catalyst with 2 millimolar peroxide
[16] = pH=10, 10 micromolar catalyst with 10 millimolar peroxide
[17] = 0 micromolar catalyst, 0 millimolar H2O2
[18] = 1 micromolar catalyst, 1 millimolar H2O2
[19] = 2 millimolar H2O2 without catalyst
[20] = 10 millimolar H2O2 without catalyst

COC(=O)C12CN(C(C)CN(C)C)CC(C(=O)OC)(C1=O)C(c1ccccn1)N(C)C2c1ccccn1 (stereo not shown) [AC]
Delta E ([1]; 1 micromolar AC, 1 millimolar H2O2, relative to clean cotton, lower = effective bleaching): 17.0 | Delta E ([1]; 1 micromolar AC, 2 millimolar H2O2): 16.2 | Delta E ([1]; 2 micromolar AC, 1 millimolar H2O2): 15.9 | Delta E ([1]; 2 micromolar AC, 2 millimolar H2O2): 14.6 | White cotton [2, 9]: 1.5 | White cotton [2, 10]: 0.5 | BC1 [3, 11]: 16.5 | BC1 [3, 10]: 10.9 | Delta E [4, 12]: 5.1 | Delta E [4, 11]: 2.0 | Delta E [4, 13]: 0.4 | Delta E [4, 14]: 0.3

Nc1c(N=Nc2ccc([N+](=O)[O-])cc2)c(S(=O)(=O)[O-])cc2cc(S(=O)(=O)[O-])c(N=Nc3ccccc3)c(O)c12.[Na+].[Na+] [Acid black 1]
% bleaching (a) [5]: 27% | % bleaching (b) [5]: 53%

Nc1c(S(=O)(=O)[O-])cc(Nc2ccccc2)c2c1C(=O)c1ccccc1C2=O.[Na+] [Acid blue 25]
% bleaching (a) [5]: 66% | % bleaching (b) [5]: 96%

O=S(=O)([O-])c1cccc(N=Nc2ccc(N=Nc3ccc(Nc4ccccc4)c4c(S(=O)(=O)[O-])cccc34)c3ccccc23)c1.[Na+].[Na+] [Acid blue 113]
% bleaching (a) [5]: 79% | % bleaching (b) [5]: 99%

COC(=O)C12CN(CCN(C)C)CC(C(=O)OC)(C1=O)C(c1ccccn1)N(C)C2c1ccccn1 (stereo not shown) [BC]
bleaching of Acid blue 25 in solution [6, 15]: much slower | bleaching of Direct violet 51 in solution [6, 15]: much slower | bleaching of Acid blue 25 in solution [6, 16]: effectively bleached | bleaching of Direct violet 51 in solution [6, 16]: effectively bleached

COc1cc(N=Nc2c(Br)cc([N+](=O)[O-])cc2[N+](=O)[O-])c(NC(C)=O)cc1N(CCOC(C)=O)CCOC(C)=O [Blue 79:1, disperse blue 79:1]
Delta E [7, 17]: 2.8 | Delta E [7, 18]: 2.8 | Delta E [7, 10]: 2.3

COC(=O)C12CN(CCN3CCOCC3)CC(C(=O)OC)(C1=O)C(c1ccccn1)N(C)C2c1ccccn1 (stereo not shown) [CC]
bleaching of Acid blue 25 in solution [6, 15]: much slower | bleaching of Direct violet 51 in solution [6, 15]: much slower | bleaching of Acid blue 25 in solution [6, 16]: effectively bleached | bleaching of Direct violet 51 in solution [6, 16]: effectively bleached

OO [Catalyst H2O2, hydrogen peroxide]
Delta E ([1]; 0 micromolar AC, 1 millimolar H2O2 alone): 18.5 | Delta E ([1]; 0 micromolar AC, 2 millimolar H2O2 alone): 18.1 | White cotton [2, 19]: 1.5 | White cotton [2, 20]: 1.4 | BC1 [3, 19]: 19.3 | BC1 [3, 20]: 18.9

Oc1cc(-c2ccccn2)nc(-c2ccccn2)c1 [DC]
bleaching of the tea stain [8]: significantly above that of a control solution | Delta E [4, 12]: 12.3 | Delta E [4, 11]: 12.2 | Delta E [4, 13]: 12.0 | Delta E [4, 14]: 11.7

COc1cc(N=Nc2c(C)cc(C)cc2S(=O)(=O)[O-])c(C)cc1N=Nc1c(S(=O)(=O)[O-])cc2cc(Nc3ccccc3)ccc2c1O.[Na+].[Na+] [Direct violet 51]
% bleaching (a) [5]: 1% | % bleaching (b) [5]: 29%

COC(=O)C12CN(CCN3CCCC3)CC(C(=O)OC)(C1=O)C(c1ccccn1)N(C)C2c1ccccn1 (stereo not shown) [EC]
White cotton [2, 9]: 1.5 | White cotton [2, 10]: 0.7 | BC1 [3, 11]: 17.5 | BC1 [3, 10]: 13.1

Cc1ccc(Nc2ccc(O)c3c2C(=O)c2ccccc2C3=O)cc1 [Violet 13, solvent violet 13]
Delta E [7, 17]: 4.0 | Delta E [7, 18]: 1.6 | Delta E [7, 10]: 0.2
